The values below come from patent US20150089682A1, “ALS Inhibitor Herbicide Tolerant B. Napus Mutants” (priority 2012, published 2015).

The test system of series [1] is spring oilseed rape variety ABILITY. As to the kind of experiment: Herbicide tolerance in the field, visible phytotoxicity. The conditions noted are these: ABILITY, field, 18 days after application, 0%=no phytotoxic effects, 100%=all plants killed. In kind it is in vivo, Brassica napus. The text has this:
(§1) Seeds of spring oilseed rape homozygous for HETO108 and HETO121 were sown in a field according to typical practical agricultural methods. The registered spring oilseed rape variety ABILITY served as a comparison. All plants were cultivated up to BBCH stage 14 (four true leaves of the oilseed rape plants). Afterwards, the herbicides mentioned in table 2 have been applied to the oilseed rape plants by using specific spray equipment for small plot applications. The water amount used was 200 L/ha.

The test system of series [2] is spring oilseed rape homozygous for HETO108 and HETO121. The description is as above. In kind it is in vivo, Brassica napus. The conditions noted are these: HETO108-HETO121, field, 18 days after application, 0%=no phytotoxic effects, 100%=all plants killed.
Source text: as §1

The target of series [3] is T1, Arabidopsis thaliana W574L-mutant ALS (Arabidopsis thaliana, UniProt P17597, E575Q/W574L).
T1 construct: vector-encoded N-terminal fusion of pET-32a(+) (Trx/His/S tag by own knowledge); made in house; host or cells: Escherichia coli AD494
Put plainly: biochemical. The conditions noted are these: for Resistance Factor W574L: relative to WT, from measured pI50. How it is done: (§2) Bacteria were grown at 37° C. in LB-medium containing 100 mg/1 carbenicillin and 25 mg/1 canamycin, induced with 1 mM isopropyl-β-D-thiogalactopyranoside at an OD600 of 0.6, cultivated for 16 hours at 18° C. and harvested by centrifugation. Bacterial pellets were resusupended in 100 mM sodium phosphate buffer pH 7.0 containing 0.1 mM thiamine-pyrophosphate, 1 mM MgCl2, and 1 μM FAD at a concentration of 1 gram wet weight per 25 ml of buffer and disrupted by sonification. The crude protein extract obtained after centrifugation was used for ALS activity measurements.
(§3) Assays were initiated by adding enzyme and terminated after 75 min incubation at 30° C. by the addition to 40 μl 0.5 M H2SO4. […] Reaction velocities were tiffed to the Michalis-Menten equation with the XLFit curve fitting program.

Series [4] addresses T2, Arabidopsis thaliana P197S-mutant ALS (Arabidopsis thaliana, UniProt P17597, E575Q/P197S).
T2 construct: vector-encoded N-terminal fusion of pET-32a(+) (Trx/His/S tag by own knowledge); made in house; host or cells: Escherichia coli AD494
As to the kind of experiment: biochemical. The note with it: for Resistance Factor P197S: relative to WT, from measured pI50. The method, then:
as §2, §3

For series [5], the target named is T3, Arabidopsis thaliana S653N-mutant ALS (Arabidopsis thaliana, UniProt P17597, E575Q/S653N).
T3 construct: vector-encoded N-terminal fusion of pET-32a(+) (Trx/His/S tag by own knowledge); made in house; host or cells: Escherichia coli AD494
Put plainly: biochemical. The method, then:
as §2, §3

Series [6] deals with T4, Arabidopsis thaliana wild-type ALS (Arabidopsis thaliana, UniProt P17597, E575Q).
T4 construct: vector-encoded N-terminal fusion of pET-32a(+) (Trx/His/S tag by own knowledge); made in house; host or cells: Escherichia coli AD494
As to the kind of experiment: biochemical. The conditions noted are these: measured; crude extract of E. coli expressed enzyme; read-out: pI50 WT (converted). The method, then:
as §2, §3

For series [7], the system named is ALS enzyme in leaves of wild-type Brassica lines. As to the kind of experiment: ALS enzyme activity in leaves. In kind it is biochemical, Brassica napus. The conditions noted are these: wild-type leaves (row IV) compared with mutant lines (rows I-III), FIG. 3. How it is done: (§4) The inhibitory effect of ALS inhibiting herbicides on ALS enzymes encoded by the different mutant AHAS alleles was tested in leaf material essentially as described by Shimizu et al, 2008, Plant Physiol. 147:1976.

The subject of series [8] is ALS enzymes in leaves of Brassica lines homozygous for HETO108, HETO121 or both. Put plainly: ALS enzyme activity in leaves. It counts as biochemical, Brassica napus. The conditions noted are these: FIG. 3. The method, then:
as §4

Series [9] concerns the target T5, mixture of P197S and W574L ALS enzymes (Arabidopsis thaliana, UniProt P17597).
T5 construct: crude E. coli extract was used
In kind it is biochemical. The conditions noted are these: for Resistance Factor P197S & W574L: relative to WT, calculated. How it is done: as §3
(§5) To characterize the response of a mixture of two different ALS enzymes to a given ALS inhibitor the following assumptions were made: • a inhibition is competitive and reversible • b. in the absence of inhibitor, equal activities of the ALS (mutant) enzymes 1 and 2 are present
(§6) Using experimentally determined pI50-values for various ALS-inhibiting herbicides, enzyme activities at different inhibitor concentrations were calculated (see Theory) for each ALS enzyme. Total ALS activity at any given inhibitor concentration is the sum of the activity of (mutant) enzyme 1 and (mutant) enzyme 2. If the experimentally determined pI50-value was <4, pI50=3.0 was used for the calculations. If the calculated pI50-value was 3.0, the pI50 was redefined as <4.

The target in series [10] is T6, mixture of S653N and W574L ALS enzymes (Arabidopsis thaliana, UniProt P17597).
T6 construct: crude E. coli extract was used
In kind it is biochemical. The note with it: for Resistance Factor S653N & W574L: relative to WT, calculated. How it is done: as §3, §5, §6

A short description of series [11]: Kinetic parameters of enzymatic activity of AHAS mutants. It counts as biochemical, Arabidopsis thaliana. The note with it: pyruvate varied 0-120 mM. The method, then: as §2, with “The coding sequences of the Arabidopsis thaliana wild-type and P197S-, W574L-, and S653N-mutant ALS genes were cloned into Novagen pET-32a(+) vectors and the vectors transformed into Escherichia coli AD494 according to the instructions of the manufacturer. Bacteria were” for “Bacteria were”
ALS assays were carried out in 96-well microtiter plates using a modification of the procedure described by Ray (1984), Plant Physiol 75:827-831. The reation mixture contained 20 mM potassium phosphate buffer pH 7.0, 20 mM sodium pyruvate, 0.45 mM thiamine-pyrophosphate, 0.45 mM MgCl2, 9 μM FAD, ALS enzyme and various concentrations of ALS inhibitors in a final volume of 90 μl. Assays were initiated by adding enzyme and terminated after 75 min incubation at 30° C. by the addition to 40 μl 0.5 M H2SO4. […] The pI50 values measured for the different mutant AHAS proteins and calculated for the mixtures of two different AHAS enzymes are shown in Table 3. […] Reaction velocities were tiffed to the Michalis-Menten equation with the XLFit curve fitting program.

The mark [12] stands for this setting: Brassica napus, topical, 432 h, AI dose rate 50 gai/ha, read-out: % phytotox.
The mark [13] stands for this setting: calculated for a mixture of equal activities of the two enzymes, pI50=3.0 used where measured <4.

As to `COc1cc(OC)nc(NC(=O)NS(=O)(=O)c2cc(NC=O)ccc2C(=O)N(C)C)n1` [Foramsulfuron, foramsulfuron], the pest or weed control at 50 g/ha in series [1] (setting [12]) was 99%; in series [2] (setting [12]), 28%. For the same molecule, the IC50 is 50100 nM in series [3] (measured, crude extract of E. coli expressed enzyme, read-out: pI50 W574L (converted)); 100 nM in [4] (measured, crude extract of E. coli expressed enzyme, read-out: pI50 P197S (converted)); 63.1 nM in series [5] (measured, crude extract of E. coli expressed enzyme, read-out: pI50 S653N (converted)); 6.31 nM in series [6]. Moreover, the “Resistance Factor W574L” value in series [3] came out at 7943. Further, the “Resistance Factor P197S” value in series [4] came out at 16. Also, the “Resistance Factor S653N” value in [5] (relative to WT, from measured pI50) worked out at 10. Also, in series [7], the “inhibition of ALS enzyme activity in leaves” value was “inhibited at lower concentrations of the herbicides than in leaves comprising the mutant AHAS alleles”. Further, the “tolerance of ALS activity in leaves by mutation” value in series [8] (P197S (row II) compared with W574L (row III) and both (row I)) was “the tolerance in lines with the P197S mutation (row II) is lower than the tolerance in lines with the W574L mutation (row III) and with both the P197S and W574L mutation (row I)”. Further, the “pI50 P197S & W574L” value in [9] (setting [13]) is 5.6. The “Resistance Factor P197S & W574L” value in [9] is listed as 398. The “pI50 S653N & W574L” value in series [10] (setting [13]) was 5.7. For the same molecule, the “Resistance Factor S653N & W574L” value in series [10] is reported as 316.

In the case of `COC(=O)c1csc(C)c1S(=O)(=O)NC(=O)n1nc(OC)n(C)c1=O` [Thiencarbazone-methyl, thiencarbazone-methyl], the “% phytotox” value is 100% in series [1] (AI dose rate 30 gai/ha) and 3% in [2] (AI dose rate 30 gai/ha). The “Resistance Factor W574L” value in series [3] was determined as 1259. Besides, the “Resistance Factor P197S” value in series [4] was determined as 1259. Further, the “inhibition of ALS enzyme activity in leaves” value in series [7] is “inhibited at lower concentrations of the herbicides than in leaves comprising the mutant AHAS alleles”. Besides, the “herbicide tolerance of ALS activity in leaves, TCM compared with FS” value in series [8] (mutant lines (rows I-III)) is given as “the herbicide tolerance is higher for TCM than for FS”. In addition, the “Resistance Factor P197S & W574L” value in series [9] is reported as 1259. Moreover, the “Resistance Factor S653N & W574L” value in series [10] was 316.

B1: S653N: Arabidopsis thaliana S653N-mutant ALS expressed in Escherichia coli, crude protein extract (protein, UniProt P17597 56-670, looked up, variant S653N)
Acetolactate synthase, …: SSSPSSISAVLNTTTNVTTTPSPTKPTKPETFISRFAPDQPRKGADILVEALERQGVETVFAYPGGASMEIHQALTRSSSIRNVLPRHEQGGVFAAEGYARSSGKPGICIATSGPGATNLVSGLADALLDSVPLVAITGQVPRRMIGTDAFQETPIVEVTRSITKHNYLVMDVEDIPRIIEEAFFLATSGRPGPVLVDVPKDIQQQLAIPNWEQAMRLPGYMSRMPKPPEDSHLEQIVRLISESKKPVLYVGGGCLNSSDELGRFVELTGIPVASTLMGLGSYPCDDELSLHMLGMHGTVYANYAVEHSDLLLAFGVRFDDRVTGKLEAFASRAKIVHIDIDSAEIGKNKTPHVSVCGDVKLALQGMNKVLENRAEELKLDFGVWRNELNVQKQKFPLSFKTFGEAIPPQYAIKVLDELTDGKAIISTGVGQHQMWAAQFYNYKKPRQWLSSGGLGAMGFGLPAAIGASVANPDAIVVDIDGDGSFIMNVQELATIRVENLPVKVLLLNNQHLGMVMQWEDRFYKANRAHTFLGDPAQEDEIFPNMLLFAAACGIPAARVTKKADLREAIQTMLDTPGPYLLDVICPHQEHVLPMIPNGGTFNDVITEGDGRIKY
In the case of B1, in series [11], the Km (commonly the concentration of substrate that gives half-maximal velocity) was 5.8 ± 0.4 mM and the Vmax is listed as 32.0 ± 1.4 ΔE/min mg.
